Measured values from patent publication US20100261708A1 (BOEHRINGER INGELHEIM INTERNATIONAL GMBH, priority 2007, published 2010).

Each compound was assayed against T1, human CB2R (Homo sapiens, UniProt P34972) (assay: CB2R mediated modulation of cAMP synthesis). Conditions: not given.
T1 construct: host or cells: CHO cells
Format: cell-based
Description: B. CB2R Mediated Modulation of cAMP Synthesis:
Compounds of the invention were evaluated for their CB2 agonist or inverse agonistic activity in accordance with the following experimental method.
CHO cells expressing human CB2R (Euroscreen) were plated at a density of 5000 cells per well in 384 well plates and incubated overnight at 37° C. After removing the media, the cells were treated with test compounds diluted in stimulation buffer containing 1 mM IBMX, 0.25% BSA and 10 uM Forskolin. The assay was incubated for 30 minutes at 37° C. Cells were lysed and the cAMP concentration was measured using DiscoverX-XS cAMP kit, following the manufacturer's protocol. In this setting, agonists will decrease forskolin induced production of cAMP while inverse agonists will further increase forskolin induced production of cAMP. EC50 of agonists were calculated as follows. The maximal amount of cAMP produced by forskolin compared to the level of cAMP inhibited by 1 uM CP55940 is defined as 100%. […] Data was analyzed using a four-parameter logistic model. (Model 205 of XLfit 4.0).

T1 sequence (P34972 whole entry): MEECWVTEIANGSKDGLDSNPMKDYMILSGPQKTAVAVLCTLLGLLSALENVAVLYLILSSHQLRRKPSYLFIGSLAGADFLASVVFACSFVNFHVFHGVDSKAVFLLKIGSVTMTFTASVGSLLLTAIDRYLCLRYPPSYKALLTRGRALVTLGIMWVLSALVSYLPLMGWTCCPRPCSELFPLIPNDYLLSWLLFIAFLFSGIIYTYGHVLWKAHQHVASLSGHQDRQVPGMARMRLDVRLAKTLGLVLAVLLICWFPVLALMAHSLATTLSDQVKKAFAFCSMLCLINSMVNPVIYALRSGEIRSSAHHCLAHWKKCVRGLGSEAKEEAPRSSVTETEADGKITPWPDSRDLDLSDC

Row | Structure (SMILES) | EC50
1 | CC(C)(C)c1ccc2oc(N3CCCN(C(=O)c4ccc(Cl)cc4)CC3)nc2c1 [Example 3, [4-(5-tert-Butyl-benzooxazol-2-yl)-[1,4]diazepan-1-yl]-(4-chloro-phenyl)-methanone] | 0.14 nM
2 | O=C(c1ccc(Cl)cc1)N1CCCN(c2nc3ccc(Cl)cc3s2)CC1 [Example 9, [4-(6-Chloro-benzothiazol-2-yl)-[1,4]diazepan-1-yl]-(4-chloro-phenyl)-methanone] | 30 nM
3 | Cc1nc(NC(=O)N2CCCN(c3ncc(C(F)(F)F)cc3Cl)CC2)sc1C(C)(C)C [Example 14, 4-(3-Chloro-5-trifluoromethyl-pyridin-2-yl)-[1,4]diazepane-1-carboxylic acid (5-tert-butyl-4-methyl-thiazol-2-yl)-amide] | 0.94 nM
4 | CC(C)(C)c1cc(NC(=O)N2CCCN(c3ncc(Cl)cc3Cl)CC2)no1 [Example 21, 4-(3,5-Dichloro-pyridin-2-yl)-[1,4]diazepane-1-carboxylic acid (5-tert-butyl-isoxazol-3-yl)-amide] | 44 nM
5 | O=C(C1CCOCC1)N1CCCN(c2nc3cc(C(F)(F)F)ccc3s2)CC1 [Example 65] | 35 nM
6 | CCc1cnc(N2CCCN(C(=O)Nc3cc(C(C)(C)C)on3)CC2)nc1 [Example 79, 4-(5-Ethyl-pyrimidin-2-yl)-[1,4]diazepane-1-carboxylic acid (5-tert-butyl-isoxazol-3-yl)-amide] | 6 nM

Same assay, conditions: read-out: CB2 CAMP @EC50

Row | Structure (SMILES) | EC50
7 | CC(C)(C)c1ccc2oc(N3CCCN(C(=O)C4CCC(F)(F)CC4)CC3)nc2c1 [Example 4, [4-(5-tert-Butyl-benzooxazol-2-yl)-[1,4]diazepan-1-yl]-(4,4-difluoro-cyclohexyl)-methanone] | 0.017 nM
8 | O=C(C1CCOCC1)N1CCCN(c2nc3cc(C(F)(F)F)ccc3o2)CC1 [Example 5, (Tetrahydro-pyran-4-yl)-[4-(5-trifluoromethyl-benzooxazol-2-yl)-[1,4]diazepan-1-yl]-methanone] | 43 nM
9 | Cc1csc(NC(=O)N2CCCN(c3ncc(C(F)(F)F)cc3Cl)CC2)n1 [Example 6, 4-(3-Chloro-5-trifluoromethyl-pyridin-2-yl)-[1,4]diazepane-1-carboxylic acid (4-methyl-thiazol-2-yl)-amide] | 30 nM
10 | O=C(c1ccc(Cl)cc1)N1CCCN(c2nc(-c3ccccc3)ns2)CC1 [Example 11, (4-Chloro-phenyl)-[4-(3-phenyl-[1,2,4]thiadiazol-5-yl)-[1,4]diazepan-1-yl]-methanone] | 5 nM
11 | CC(C)(C)SCCNC(=O)N1CCCN(c2ncc(C(F)(F)F)cc2Cl)CC1 [Example 15, 4-(3-Chloro-5-trifluoromethyl-pyridin-2-yl)-[1,4]diazepane-1-carboxylic acid (2-tert-butylsulfanyl-ethyl)-amide] | 21 nM
12 | CC(C)(C)c1cc(NC(=O)N2CCCN(c3nccc(C(F)(F)F)n3)CC2)no1 [Example 23, 4-(4-Trifluoromethyl-pyrimidin-2-yl)-[1,4]diazepane-1-carboxylic acid (5-tert-butyl-isoxazol-3-yl)-amide] | 333 nM
13 | Cn1nc(C(C)(C)C)cc1NC(=O)N1CCCN(c2ncc(Cl)cc2Cl)CC1 [Example 28, 4-(3,5-Dichloro-pyridin-2-yl)-[1,4]diazepane-1-carboxylic acid (5-tert-butyl-2-methyl-2H-pyrazol-3-yl)-amide] | 500 nM
14 | O=C(C1CCC(O)CC1)N1CCCN(c2nc3cc(C(F)(F)F)ccc3o2)CC1 (stereo not shown) [Example 32, (4-Hydroxy-cyclohexyl)-[4-(5-trifluoromethyl-benzooxazol-2-yl)-[1,4]diazepan-1-yl]-methanone] | 19 nM
15 | N#Cc1cnc(N2CCCN(C(=O)C3CCOCC3)CC2)s1 [Example 34, 2-[4-(Tetrahydro-pyran-4-carbonyl)-[1,4]diazepan-1-yl]-thiazole-5-carbonitrile] | 40 nM
16 | Cc1c(Cl)ccc2sc(N3CCCN(C(=O)N4CCOCC4)CC3)nc12 [Example 38, [4-(5-Chloro-4-methyl-benzothiazol-2-yl)-[1,4]diazepan-1-yl]-morpholin-4-yl-methanone] | 204 nM
17 | Cc1ccc(Cl)c2sc(N3CCCN(C(=O)N4CCOCC4)CC3)nc12 [Example 39, [4-(7-Chloro-4-methyl-benzothiazol-2-yl)-[1,4]diazepan-1-yl]-morpholin-4-yl-methanone] | 2 nM
18 | O=C(N1CCCN(c2nc3ccccc3[nH]2)CC1)N1CCS(=O)(=O)CC1 [Example 56, [4-(1H-Benzoimidazol-2-yl)-[1,4]diazepan-1-yl]-(1,1-dioxo-1λ^6-thiomorpholin-4-yl)-methanone] | 327 nM
19 | O=C(C1CCOCC1)N1CCCN(c2nc3ccc(Cl)cc3o2)CC1 [Example 70, [4-(6-Chloro-benzooxazol-2-yl)-[1,4]diazepan-1-yl]-(tetrahydro-pyran-4-yl)-methanone] | 180 nM
20 | O=C(N1CCOCC1)N1CCCN(c2nc3cc(Cl)ccc3o2)CC1 [Example 72, [4-(5-Chloro-benzooxazol-2-yl)-[1,4]diazepan-1-yl]-morpholin-4-yl-methanone] | 490 nM
21 | Cc1ccnc(N2CCCN(C(=O)Nc3cc(C(C)(C)C)on3)CC2)n1 [Example 81, 4-(4-Methyl-pyrimidin-2-yl)-[1,4]diazepane-1-carboxylic acid (5-tert-butyl-isoxazol-3-yl)-amide] | 344 nM

More lines, now with the values ahead:

Row | EC50 | Structure (SMILES)
22 | 221 nM | Cc1cc(Cl)cc2sc(N3CCCN(C(=O)C4CCOCC4)CC3)nc12 [Example 42, [4-(6-Chloro-4-methyl-benzothiazol-2-yl)-[1,4]diazepan-1-yl]-(tetrahydro-pyran-4-yl)-methanone]
23 | 114 nM | Cc1ccc(Cl)c2sc(N3CCCN(C(=O)C4CCOCC4)CC3)nc12 [Example 43, [4-(7-Chloro-4-methyl-benzothiazol-2-yl)-[1,4]diazepan-1-yl]-(tetrahydro-pyran-4-yl)-methanone]
24 | 445 nM | Cc1ccc(C)c2sc(N3CCCN(C(=O)C4CCOCC4)CC3)nc12 [Example 46, [4-(4,7-Dimethyl-benzothiazol-2-yl)-[1,4]diazepan-1-yl]-(tetrahydro-pyran-4-yl)-methanone]
25 | 53 nM | Cc1cc(C)c2sc(N3CCCN(C(=O)C4CCOCC4)CC3)nc2c1 [Example 47, [4-(5,7-Dimethyl-benzothiazol-2-yl)-[1,4]diazepan-1-yl]-(tetrahydro-pyran-4-yl)-methanone]
26 | 3 nM | Cc1c(Cl)ccc2sc(N3CCCN(C(=O)C4CCOCC4)CC3)nc12 [Example 48, [4-(5-Chloro-4-methyl-benzothiazol-2-yl)-[1,4]diazepan-1-yl]-(tetrahydro-pyran-4-yl)-methanone]
27 | 54 nM | FC(F)(F)c1cnc(N2CCCN(c3nc4cc(C(F)(F)F)ccc4o3)CC2)c(Cl)c1 [Example 49, 2-[4-(3-Chloro-5-trifluoromethyl-pyridin-2-yl)-[1,4]diazepan-1-yl]-5-trifluoromethyl-benzooxazole]
28 | 217 nM | O=C(C1CCOCC1)N1CCCN(c2nc(-c3ccccc3)cs2)CC1 [Example 53, [4-(4-Phenyl-thiazol-2-yl)-[1,4]diazepan-1-yl]-(tetrahydro-pyran-4-yl)-methanone]
29 | 14 nM | O=C(C1CCOCC1)N1CCCN(c2ncc(CN3CCOCC3)s2)CC1 [Example 54, [4-(5-Morpholin-4-ylmethyl-thiazol-2-yl)-[1,4]diazepan-1-yl]-(tetrahydro-pyran-4-yl)-methanone]
30 | 110 nM | Cc1ccc2nc(N3CCCN(C(=O)C4CCOCC4)CC3)sc2c1 [Example 64, [4-(6-Methyl-benzothiazol-2-yl)-[1,4]diazepan-1-yl]-(tetrahydro-pyran-4-yl)-methanone]
31 | 10 nM | O=C(C1CCC(F)(F)CC1)N1CCCN(c2nc3cc(C(F)(F)F)ccc3o2)CC1 [Example 67, (4,4-Difluoro-cyclohexyl)-[4-(5-trifluoromethyl-benzooxazol-2-yl)-[1,4]diazepan-1-yl]-methanone]
32 | 14 nM | CCC(C)c1cc(NC(=O)N2CCCN(c3ncc(C(F)(F)F)cc3Cl)CC2)n(C)n1 (stereo not shown) [Example 68, 4-(3-Chloro-5-trifluoromethyl-pyridin-2-yl)-[1,4]diazepane-1-carboxylic acid (5-sec-butyl-2-methyl-2H-pyrazol-3-yl)-amide]
33 | 77 nM | O=C(C1CCOCC1)N1CCCN(c2nc3cc(-c4ccccc4)ccc3o2)CC1 [Example 71, [4-(5-Phenyl-benzooxazol-2-yl)-[1,4]diazepan-1-yl]-(tetrahydro-pyran-4-yl)-methanone]
34 | 45.2 nM | Cc1csc2ncnc(N3CCCN(C(=O)N4CCOCC4)CC3)c12 [Example 86, [4-(5-Methyl-thieno[2,3-d]pyrimidin-4-yl)-[1,4]diazepan-1-yl]-morpholin-4-yl-methanone]
